Experimental data: ChEMBL document CHEMBL1147292, “The structure of ulithiacyclamide B. Antitumor evaluation of cyclic peptides and macrolides from Lissoclinum patella” (J Nat Prod, 1989)
≈ marks a conversion by molar mass, not a printed value.

What was measured:
KB = assay: Cytotoxicity against human KB cells; format: functional, cell-based
L1210 [1] = assay: Cytotoxicity against mouse L1210 cells at 100 ug/disk by corbett disk diffusion assay; format: functional
MC-38 [2] = assay: Cytotoxicity against mouse C38 cells at 100 ug/disk by corbett disk diffusion assay; format: functional
[3] = Cytotoxicity against human H116 cells at 100 ug/disk by corbett disk diffusion assay; format: functional
L1210 [4] = assay: Cytotoxicity against mouse L1210 cells at 1.5 ug/disk by corbett disk diffusion assay; format: functional
MC-38 [5] = assay: Cytotoxicity against mouse C38 cells at 1.5 ug/disk by corbett disk diffusion assay; format: functional
L1210 [6] = assay: Cytotoxicity against mouse L1210 cells at 10 ug/disk by corbett disk diffusion assay; format: functional
MC-38 [7] = assay: Cytotoxicity against mouse C38 cells at 10 ug/disk by corbett disk diffusion assay; format: functional
[8] = Cytotoxicity against human H116 cells at 10 ug/disk by corbett disk diffusion assay; format: functional
L1210 [9] = assay: Cytotoxicity against mouse L1210 cells at 0.15 ug/disk by corbett disk diffusion assay; format: functional
[10] = Cytotoxicity against mouse Panc03 cells at 1.5 ug/disk by corbett disk diffusion assay; format: functional
L1210 [11] = assay: Cytotoxicity against mouse L1210 cells at 5 ug/disk by corbett disk diffusion assay; format: functional
MC-38 [12] = assay: Cytotoxicity against mouse C38 cells at 5 ug/disk by corbett disk diffusion assay; format: functional
[13] = Cytotoxicity against human H116 cells at 5 ug/disk by corbett disk diffusion assay; format: functional
L1210 [14] = assay: Cytotoxicity against mouse L1210 cells at 200 ug/disk by corbett disk diffusion assay; format: functional
MC-38 [15] = assay: Cytotoxicity against mouse C38 cells at 200 ug/disk by corbett disk diffusion assay; format: functional
[16] = Cytotoxicity against human H116 cells at 200 ug/disk by corbett disk diffusion assay; format: functional

Structure (SMILES): CC[C@H](C)[C@@H]1NC(=O)c2csc(n2)[C@@H](C(C)C)NC(=O)[C@H]2N=C(O[C@@H]2C)[C@H]([C@@H](C)CC)NC(=O)c2csc(n2)[C@@H](C(C)C)NC(=O)[C@@H]2COC1=N2 [PATELLAMIDE A]
- IC50 (KB): 3 µg/mL (≈ 4.04 µM)
- Activity (L1210 [1]): 150 Zone units
- Activity (MC-38 [2]): 160 Zone units
- Activity [3]: 0 Zone units

Structure (SMILES): O=c1[nH]cc(F)c(=O)[nH]1 [FLUOROURACIL]
- Activity (L1210 [4]): 0 Zone units
- Activity (MC-38 [5]): 800 Zone units

Structure (SMILES): CC(C)C[C@H]1NC(=O)[C@H]2N=C(O[C@@H]2C)[C@H]2CSSC[C@@H](NC(=O)c3csc1n3)C1=N[C@H](C(=O)N[C@H](Cc3ccccc3)c3nc(cs3)C(=O)N2)[C@@H](C)O1 [ULITHIACYCLAMIDE B]
- IC50 (KB): 0.017 µg/mL (≈ 0.0213 µM)
- Activity (L1210 [6]): 270 Zone units
- Activity (MC-38 [7]): 290 Zone units
- Activity [8]: 280 Zone units

Structure (SMILES): CC[C@H](C)[C@@H]1NC(=O)c2csc(n2)[C@@H](C)NC(=O)[C@H]2N=C(O[C@@H]2C)[C@H](CC(C)C)NC(=O)c2csc(n2)[C@@H](Cc2ccccc2)NC(=O)[C@H]2N=C1O[C@@H]2C [PATELLAMIDE B]
- IC50 (KB): > 4 µg/mL
- Activity (L1210 [1]): 50 Zone units
- Activity (MC-38 [2]): 150 Zone units
- Activity [3]: 0 Zone units

Structure (SMILES): Nc1ccn([C@@H]2O[C@H](CO)[C@@H](O)[C@@H]2O)c(=O)n1 [CYTARABINE]
- Activity (L1210 [9]): 550 Zone units
- Activity [10]: 0 Zone units

Structure (SMILES): CCC(C)OC(=O)C1(C)CCC(C)CC(O)C(C)C(=O)C(C)/C=C\CC(C)C(O)C(O)C(OC)/C(C)=C/C=C/C(C)C(C(C)(O)/C=C(/C)Cc2csc(C3(C)OC3C)n2)OC1=O (centres undefined) [PATELLAZOLE A]
- IC50 (KB): 0.01 µg/mL (≈ 0.0113 µM)
- Activity (L1210 [11]): 240 Zone units
- Activity (MC-38 [12]): 320 Zone units
- Activity [13]: 370 Zone units

Structure (SMILES): CC(C)C[C@H]1NC(=O)[C@H]2N=C(O[C@@H]2C)[C@H]2CSSC[C@@H](NC(=O)c3csc1n3)C1=N[C@H](C(=O)N[C@H](CC(C)C)c3nc(cs3)C(=O)N2)[C@@H](C)O1 [ULITHIACYCLAMIDE]
- IC50 (KB): 0.035 µg/mL (≈ 0.0459 µM)

Structure (SMILES): COC1/C(C)=C/C=C/C(C)C(C(C)(O)/C=C(/C)Cc2csc(C3(C)OC3C)n2)OC(=O)C(C)(C(=O)OC(C)C(C)O)CCC(C)CC(O)C(C)C(=O)C(C)/C=C\CC(C)C(O)C1O (centres undefined) [PATELLAZOLE B]
- IC50 (KB): 0.0003 µg/mL (≈ 0.000332 µM)
- Activity (L1210 [11]): 300 Zone units
- Activity (MC-38 [12]): 460 Zone units
- Activity [13]: 460 Zone units

Structure (SMILES): CC[C@H](C)[C@@H]1NC(=O)c2csc(n2)[C@@H](C)NC(=O)[C@H]2N=C(O[C@@H]2C)[C@H](C(C)C)NC(=O)c2csc(n2)[C@@H](Cc2ccccc2)NC(=O)[C@H]2N=C1O[C@@H]2C [PATELLAMIDE C]
- IC50 (KB): 6 µg/mL (≈ 7.86 µM)
- Activity (L1210 [14]): 260 Zone units
- Activity (MC-38 [15]): 170 Zone units
- Activity [16]: 0 Zone units
